In patent publication US10858688B2, “Observation method using binding and dissociation probe” (KYOTO UNIVERSITY, priority 2015, dated 2020):
Where no end group is shown, it is not given here.

What was measured:
microtubule [1] = assay: Labeling patterns of microtubules in TIRF IRIS images; assay type: cell-based, Xenopus laevis; conditions: for labeling of microtubule plus end (tip): when EB1 existed (cold methanol-preprocessed cells)
Source text: FIG. 12 show labeling patterns of microtubules by a CLIP-170 fragment (amino acid residues 3-309 of sequence number 12), an APC fragment (amino acid residues 2536-2843 of sequence number 14), a MAP4 fragment (amino acid residues 1-908 of sequence number 4) and Tau isoform 3 (full length of sequence number 5). The patterns are different depending upon procedures for fixing cells. FIG. 12 (a) and FIG. 12 (b) show live-cell imaging during the fixation operation. In FIG. 12 (a), the accumulation of EB1-EGFP at the tips of microtubules disappeared in a process by 3.7% PFA and 0.5% Triton-X 100. In FIG. 12 (b), EB1-EGFP was fixed in a state in which it was accumulated at the tips of the microtubules in a process by cold methanol. […] With these probes, IRIS images of the entire microtubules were obtained. […] The microtubule tips were labeled strongly with a CLIP-170 fragment while they were weakly labeled with a MAP4 fragment and Tau isoform 3 (see merged images in the lower tier).
A plurality of IRIS probes for a microtubule and a focal adhesion visualized different sites of their structure bodies. […] The result corresponds to in-vitro data (document 26). Further, Paxillin and the Src fragment visualized different portions of focal adhesion (FIG. 13). Thus, IRIS can also be applied to mapping analysis of a site in which a plurality of protein fragments bind. Development of an IRIS probe that binds to a molecule in a specific state also makes it is possible to perform super-resolution mapping on the molecule in the specific state.

microtubule [2] = assay: IRIS image test (reconstruction image); assay type: cell-based, Xenopus laevis; parameters: key: “IRIS image” is positive (P) when above criterion (3) is met; conditions: reconstruction from 10000 frames with DAOSTORM
Method: (§1) […] It is possible to reconstruct an image of a target substance by integrating the central positions of the respective speckles. The IRIS image test of the above (3) whose result is described in table 1 was performed in the following procedures. By using all the speckle images of 10000 frames picked up in the localization test, the central point of a probe that has bound to a target in each frame of the speckle images was determined with nanometer accuracy by using DAOSTORM. By adding a large number of pieces of central point information in the fluorescence images of 10000 frames, a reconstruction image (observation image) was generated. Whether or not a distribution of a target molecule was able to be observed in that reconstruction image was determined, and when a distribution of a target molecule was observed, the result was treated as P (positive).

microtubule [3] = assay: Localization test of probe candidates (integrated SiMS images); assay type: cell-based, Xenopus laevis; parameters: key: “localization” is positive (P) when above criterion (1) is met; conditions: fixed, permeabilized XTC cell; lysate supernatant of EGFP fused probe; TIRF, 10000 frames
Method: (§2) HEK (Human embryonic kidney)-293F cells were transfected with a plasmid encoding a probe candidate protein tagged with FLAG-EGFP or 3×FLAG-EGFP. […] Centrifugal separation was performed on the lysate and the supernatant liquid was collected. In order to perform screening for a probe for IRIS, the binding capacity of a probe candidate in the supernatant liquid with respect to the structure of an XCT cell that was fixed with paraformaldehyde (PFA) and that received a permeabilization process was tested. The appearance and disappearance of single molecule speckles (Single-molecule speckles, SiMS) in the structure was tested. Screening was performed for a probe for IRIS in accordance with the following criteria:
(§3) (1) It is possible to confirm a distribution of target substances in the structure in an image resulting from adding SiMS images;
(§4) The localization test of the above (1), whose result is shown in table 1, was performed in the following procedures. First, the supernatant liquid of lysate of a cell that expressed each probe candidate was brought into contact with an XCT cell that was fixed on a coverglass and that received a permeabilization process. […] The obtained speckle images of 10000 frames were integrated so as to confirm whether or not a distribution of target substances in the cell (microtubule, intermediate filament, focal adhesion or actin filament) was able to be confirmed. When a distribution of a target substances was able to be confirmed, the result of the localization test was treated as P (positive).

microtubule [4] = assay: Measurement of binding half-life of probe-target complex; parameters: species or system Xenopus laevis; conditions: fixed XTC cell, single exponential fit
Source text: (§5) A probe and a target substance have the following binding characteristics. […] The above half-life herein is preferably a half-life of a probe-target complex formed by binding between a probe and a target substance in a case when a medium containing a probe and a sample containing a target substance that is to be observed are brought into contact under a condition for performing an imaging step. […] Measurement procedures for the half-life are as below. […] Ndissociation is a cumulative relative frequency of a probe that dissociated. A cumulative relative frequency is a ratio of the speckles that disappeared within a given period of time to the total number of measured speckles (i.e. probes) (i.e. probes that dissociated within a given period of time), and represents the total number as 1. Then, by fitting the above complementary cumulative relative frequency function with an exponent function, that half-life is calculated.
The measurement of binding half-life, whose result is shown in table 1, was performed in the following procedures. Speckle images of 10000 frames picked up in the localization test were used in order to measure a period of time between the appearance of a probe that has bound to a target in a speckle image and disappearance through dissociation in a semi-manual mode by using Speckle TrackerJ, an ImageJ plug-in. In case of for example picking up of images with an exposure time of 50 ms and at a frame rate of 20 Hz, it is assumed that a period of time between the appearance and disappearance of a speckle that is observed in only one of consecutive frames is 50 ms and a period of time between the appearance and disappearance of a speckle observed in only two consecutive frames is 100 ms. […] Ndissociation is a cumulative relative frequency of probes that dissociated. Then, by fitting the complementary cumulative relative frequency function with an exponent function, the half-life was calculated. However, the binding half-life with respect to an actin filament of Atto488-Lifeact was measured by using a method that is described in detail in the section for FIG. 9 in the Brief Description of the Drawings.

microtubule [5] = assay: Washability test of probe candidates; assay type: cell-based, Xenopus laevis; parameters: key: “washability” is positive (P) when above criterion (2) is met; conditions: speckles equal to or less than about 10% after switching imaging solution 10 to 20 times
Method: (§6) (2) It is possible to wash and remove a probe after SiMS imaging (imaging step);
(§7) The […] of the above (2), whose result is shown in table 1, was performed in the following procedures. […] This switching of imaging solution was conducted slowly so that the observation position would not shift. Next, an imaging solution not containing a probe and not containing the active oxygen-scavenging mix was switched 10 to 20 times. After the switching, for confirmation, for an XCT cell sample in the observation chamber, speckle images of 10 frames were picked up under a similar condition to that of the localization test described in the previous paragraph, and when the number of speckles confirmed in the speckle images (i.e., the number of probes that had bound) became sufficiently smaller (equal to or less than about 10%) than the number of the speckles in the speckle images before the washing operation, washing was determined to be possible and the result was treated as P (positive).

actin filament = conditions: document 10; cited from earlier work
focal adhesion [6] = assay: Measurement of binding half-life of probe-target complex; parameters: species or system Xenopus laevis; conditions: fixed XTC cell, single exponential fit
Source text: as §5
The measurement of binding half-life, whose result is shown in table 1, was performed in the following procedures. […] Then, by fitting the complementary cumulative relative frequency function with an exponent function, the half-life was calculated. However, the binding half-life with respect to an actin filament of Atto488-Lifeact was measured by using a method that is described in detail in the section for FIG. 9 in the Brief Description of the Drawings.

focal adhesion [7] = assay: IRIS image test (reconstruction image); assay type: cell-based, Xenopus laevis; parameters: key: “IRIS image” is positive (P) when above criterion (3) is met; conditions: reconstruction from 10000 frames with DAOSTORM
Method: as §1

focal adhesion [8] = assay: Localization test of probe candidates (integrated SiMS images); assay type: cell-based, Xenopus laevis; parameters: key: “localization” is positive (P) when above criterion (1) is met; conditions: fixed, permeabilized XTC cell; lysate supernatant of EGFP fused probe; TIRF, 10000 frames
Method: as §2, §3, §4

focal adhesion [9] = assay: Washability test of probe candidates; assay type: cell-based, Xenopus laevis; parameters: key: “washability” is positive (P) when above criterion (2) is met; conditions: speckles equal to or less than about 10% after switching imaging solution 10 to 20 times
Method: as §6, §7

| Substance | HALF-LIFE (microtubule [4]) | HALF-LIFE (focal adhesion [6]) | labeling of microtubule plus end (tip) (microtubule [1]) | IRIS IMAGE (microtubule [2]) | LOCALIZATION (microtubule [3]) | WASHABILITY (microtubule [5]) | time of being exchanged on an actin filament (actin filament) | IRIS IMAGE (focal adhesion [7]) | LOCALIZATION (focal adhesion [8]) | WASHABILITY (focal adhesion [9]) | labeling of microtubule (microtubule [1]; when EB1 did not exist (PFA and Triton-X 100)) |
| --- | --- | --- | --- | --- | --- | --- | --- | --- | --- | --- | --- |
| Lifeact: widely used actin marker; short peptide that stains an actin filament in a live cell or a fixed cell (document 10) (MGVADLIKKFESISKEE) |  |  |  |  |  |  | ≤ 0.4 s |  |  |  |  |
| APC 2536-2843: EGFP fused (C terminus) human APC fragment, amino acid residues 2536-2843 of sequence number 14 | 0.1 s |  |  | P | P | P |  |  |  |  |  |
| Paxillin 54-557: EGFP fused (N terminus) human Paxillin fragment, residues 54-557 of sequence number 15 |  | 0.246 s |  |  |  |  |  | P | P | P |  |
| APC 2781-2819: EGFP fused (N terminus) human APC fragment, amino acid residues 2781-2819 of sequence number 14 ({EGFP}-VTPFNYNPSPRKSSADSTSARPSQIPTPVNNNTKKRDSK; UniProt P25054 2781-2819, looked up, fragment) | 0.027 s |  |  | P | P | P |  |  |  |  |  |

The next lines start with results.

| HALF-LIFE (microtubule [4]) | HALF-LIFE (focal adhesion [6]) | Substance | labeling of microtubule plus end (tip) (microtubule [1]) | IRIS IMAGE (microtubule [2]) | LOCALIZATION (microtubule [3]) | WASHABILITY (microtubule [5]) | time of being exchanged on an actin filament (actin filament) | IRIS IMAGE (focal adhesion [7]) | LOCALIZATION (focal adhesion [8]) | WASHABILITY (focal adhesion [9]) | labeling of microtubule (microtubule [1]; when EB1 did not exist (PFA and Triton-X 100)) |
| --- | --- | --- | --- | --- | --- | --- | --- | --- | --- | --- | --- |
| 0.109 s |  | MAP4 1-908: EGFP fused (N terminus) mouse MAP4 fragment, amino acid residues 1-908 of sequence number 4 | weakly visualized | P | P | P |  |  |  |  |  |
| 0.044 s |  | CLIP-170: EGFP fused (N terminus) rat CLIP-170 fragment, amino acid residues 3-309 of sequence number 12 | strongly labeled | P | P | P |  |  |  |  | continuously labeled the entire microtubule |
| 0.11 s |  | TAU ISOFORM 3: EGFP fused (N terminus) human Tau isoform 3, full length 1-383 of sequence number 5 | weakly visualized | P | P | P |  |  |  |  |  |
|  | 0.196 s | Paxillin 1-557: EGFP fused (N terminus) human Paxillin, full length 1-557 of sequence number 15 |  |  |  |  |  | P | P | P |  |
| 0.06 s |  | TAU ISOFORM 4: EGFP fused (N terminus) human Tau isoform 4, 1-352 of sequence number 6 |  | P | P | P |  |  |  |  |  |
